Tests used:
[1] = FTY720 loading and release from degradable heparin-based MPs (plate reader); format: physicochemical
Description: FTY720 was loaded onto degradable heparin-based MPs. The amount of FTY720 that was loaded onto the MPs was then assayed via plate reader. In three separate groups, additional amounts of FTY720, i.e. 5 μg, 10 μg and 20 μg, were then added. […] For each of the three separate groups, the extent of FTY720 release was assayed via plate reader each day over 7 days. […] The black line refers to the batch with 20 μg added. The dark blue line refers to the batch with 10 μg added. The light blue line refers to the batch with 5 μg added.

plasmin = assay: Plasmin inhibition assay (TSG-6 anti-plasmin activity); format: biochemical
Description: To assess TSG-6 bioactivity after release from MPs, the plasmin inhibition assay protocol was followed with day 1 TSG-6 release supernatant (11 ng/mL) and compared to a soluble TSG-6 control at the same concentration (11 ng/mL); n=3-5.
Without wishing to be bound by theory, it may be that the sulfate groups removed, the N sulfate group for Hep^−N and the N and […] for Hep−, are necessary for complete heparin binding to TSG-6 and the subsequent enhancement of TSG-6 bioactivity.

articular cartilage = assay: Safranin-O histology of tibiae, medial meniscal transection model; format: in vivo, Sprague-Dawley rats; settings: 3 weeks following MMT injury
From the text: Medial meniscal transection (MMT) injury was induced using a similar method to previously established protocols. Willett N. J. et al., Arthritis Res Ther. 2014; 16(1):R47. Male Sprague-Dawley rats (250-300 g initial weight and 8-10 weeks old) were used in accordance with protocols approved by the Georgia Institute of Technology Institutional Animal Care and Use Committee. Prior to surgery animals were anesthetized by 5% isoflurane (Isothesia), followed by 2-3% isoflurane during surgery and were administered sustained release buprenorphine as an analgesic. Next, a small incision was made through the skin on the medial aspect of the left femoral-tibial joint. The medial collateral ligament was exposed by blunt dissection and transected to visualize the joint space and medial meniscus. The meniscus was then transected completely at its narrowest point. The skin was sutured with 4.0 silk sutures (Ethicon) and then closed using wound clips.
For TSG-6 loaded MP treatment, MPs were loaded as described above but 3.6 mg MPs were resuspended in a total volume of 50 μL sterile 0.1 wt % BSA PBS solution and subsequently loaded into sterile syringes. 1, 7, and 15 days following MMT injury, MPs were delivered via intra-articular injection through the infrapatellar ligament and into the stifle joint of the left leg. For soluble TSG-6 controls, 16.7 μg TSG-6 was dissolved in a total volume of 50 μL sterile 0.1 wt % BSA PBS solution, loaded into sterile syringes, and delivered using the same method as TSG-6 loaded MPs. Overall, in vivo experimental groups included TSG-6 loaded MPs (18 μg TSG-6 loaded onto 10.8 mg MPs delivered over 3 time points; n=3), soluble TSG-6 (50 μg TSG-6 delivered over 3 time points; n=3) or injury only (no TSG-6 or MPs; n=4). Contralateral tibiae served as uninjured controls.
Following μCT, tibiae were decalcified in Cal-Ex II (Fisher) for 10 days, then processed for histology sectioning as described previously. Tellier L. E. et al. Localized SDF-1 Delivery Increases Pro-Healing Bone Marrow-Derived Cells in the Supraspinatus Muscle Following Severe Rotator Cuff Injury. […]

[2] = tested on: articular cartilage of the medial tibial plateau; assay: EPIC-μCT of tibial articular cartilage, medial meniscal transection model; format: in vivo, Sprague-Dawley rats
[3] = TSG-6 with soluble heparin derivative, or TSG-6 alone
[4] = 21 days following MMT injury, compared to uninjured control

Molecule	Loading efficiency of FTY720 ([1]; of the originally added amount of FTY720, 5, 10, 20 μg added)	Total amount of FTY720 released from MPs ([1]; over 7 days, dependent on amount originally added) [µg]	Plasmin activity compared to plasmin control (plasmin; [3]) [%]	Effect on TSG-6 anti-plasmin activity compared to TSG-6 alone (plasmin; soluble heparin derivatives, in words)	Improvement of cartilage degeneration following injury (articular cartilage)	Proteoglycan loss (Safranin-O stained sections) (articular cartilage)	Safranin-O staining of GAG within cartilage (articular cartilage)	Plasmin activity compared to plasmin control (plasmin; day 1 release supernatant or soluble control, 11 ng/mL TSG-6) [%]	Cartilage fibrillation (contrast-enhanced μCT imaging) ([2]; 3 weeks following MMT injury)	Cartilage attenuation [2, 4] [×]	Cartilage thickness [2, 4] [×]	Cartilage volume [2, 4] [×]
CCCCCCCCc1ccc(CCC(N)(CO)CO)cc1 [FTY720]	35-80%	0.5 to 5										
fully desulfated heparin [Hep−, reference compound]			69.6±1.2	no significant effect								
soluble TSG-6: human TNF-α-stimulated gene-6, positively charged 35 kDa protein (R&D Systems)			74.6±0.2		unable to improve cartilage degeneration	proteoglycan loss is observed	Less intense safranin-O staining was observed	96.4±3.1	cartilage fibrillation is present	1.6±0.2	1.5±0.2	1.9±0.5

Source: patent US20180133148A1, “Degradable Microparticles for Protein and Small Molecule Delivery” (Georgia Tech Research Corporation, priority 2016, published 2018)
